The subject of series [1] is cats with ocular hypertension. In words: Intraocular pressure (IOP) reduction in cats with ocular hypertension produced by laser trabeculoplasty. The class given is in vivo, cat. Particulars: for Intraocular pressure, 24 hours after administration / Intraocular pressure, 36 hours after administration / Intraocular pressure, 48 hours after administration / Intraocular pressure, 60 hours after administration / Intraocular pressure, 72 hours after administration: one drop topical every 12 hours, 6 doses; for Intraocular pressure, baseline: prior to treatment. On the procedure: The ability of certain compounds of the present invention to reduce intraocular pressure (IOP) was evaluated in cats with ocular hypertension produced by previously done laser trabeculoplastry. IOP was determined with a pneumatonometer after light corneal anesthesia with dilute proparacaine. Baseline IOP was determined prior to treatment with the test compound aqueous solution. 6 divided doses were administered over a period of 3 days (once every 12 hours). IOP was determined 24 hours after the initial dose and then once every 12 hours. The therapeutically efficient amount is typically between 0.001 and 0.01% in pH 7.2 phosphate buffer (0.1 M). The treatment was carried out in that one drop (about 30 micro liter) of the composition. The results of N,N-diethylaminoethyl 11,15-dihydroxy-9-oxoprost-13-en-1-oate.AcOH (A), N,N-diethylaminoethyl 11,15-dihydroxyl-9-oxoprosta-5,13-dien-1-oate.AcOH (B), N,N-diethylaminoethyl 9,11,15-trihydroxyprosta-5,13-dien-1-oate.AcOH(C), N,N-diethylaminoethyl 9,11-dihydroxy-15-keto-20-ethylprost-5,13-dien-1-oate.AcOH (9,11-dihydroxy-15-keto-20-ethylprostaglandin F2α N,N-diethylaminoethyl ester) (D), N,N-diethylaminoethyl (Z)-7-{(1R,2R,3R,5S)-3,5-dihydroxy-2-[(1E,3R)-3-hydroxy-4-[(α,α,α-trifluoro-m-tolyl)oxy]-1-butenyl]cyclopentyl}-5-heptenoate.AcOH (E), N,N-diethylaminoethyl (Z)-7{(1R,2R,3R,5S)-3,5-dihydroxy-2-[(3R)-3-hydroxy-5-phenylpentyl]cyclopentyl}-5-heptenoate.AcOH (F), and N,N-diethylaminoethyl (Z)-7-{(1R,2R,3R,5S)-3,5-Dihydroxy-2-[(1E,3S)-3-hydroxy-5-phenyl-1-pentenyl]cyclopentyl}-heptenoate.AcOH (G) are shown in Table 2.

The subject of series [2] is cat eye. In words: Irritative effect or ocular discomfort in the cat eye after topical application. Particulars: first 2 hours, scale 0 (no discomfort) to 4 (maximal irritation, complete lid closure). In kind it is in vivo. On the procedure: Irritative effect or ocular discomfort in the cat eye of naturally occurring and modified prostaglandins and their novel prodrugs were evaluated during the first hours after the topical application of the respective test drug. The ocular discomfort was graded on a scale from 0 to 4, 0 indicating complete absence of any signs of discomfort, and 4 indicating maximal irritation as obvious from complete lid closure.

For series [3], the system named is rabbit eye. Description: Conjunctival hyperemia in the rabbit eye after topical application. In kind it is in vivo. Particulars: first 2 hours, scale 0 (no hyperemia) to 4 (marked hyperemia with conjunctive chemosis). On the procedure: Conjunctival hyperemia in the rabbit eye of naturally occurring and modified prostaglandins and their novel prodrugs was evaluated during the first 2 hours after topical application of the respective test drug. The conjunctival hyperemia was graded on a scale from 0 to 4, 0 indicating complete absence of any hyperemia, and 4 indicating marked hyperemia with conjunctive chemosis.

Series [4] is described as follows: In vitro penetration rate across isolated human skin in modified Franz cells. Particulars: 10% solution in pH 7.4 phosphate buffer (0.2 M), n=5.
Method: The penetration rates of HPPs and their parent drugs through human skin were measured in vitro by modified Franz cells. The Franz cells have two chambers, the top sample chamber and the bottom receiving chamber. The human skin tissue (360-400 μm thick) that separates the top and the receiving chambers was isolated from the anterior or posterior thigh areas.
The compound tested (2 mL, 20% in 0.2 M phosphate buffer, pH. 7.4) were added to the sample chamber of a Franz cell. The receiving chamber contains 10 ml of 2% bovine serum albumin in saline which was stirred at 600 rpm. The cumulative amounts of the tested compounds penetrating the skin versus time were determined by high-performance liquid chromatography (HPLC) method.

As for `CC(=O)O.CCCCCCCC(=O)C=C[C@H]1C(O)CC(O)[C@@H]1CC=CCCCC(=O)OCCN(CC)CC` (stereo partly drawn) [N,N-diethylaminoethyl 9,11-dihydroxy-15-keto-20-ethylprost-5,13-dien-1-oate.AcOH], in series [1] (dose 0.01%), the “Intraocular pressure, 24 hours after administration” value (“Intraocular pressure, 24 hours” below) is 16.5 ± 0.6; the “Intraocular pressure, 36 hours after administration” value (from here on “Intraocular pressure, 36 hours”) was found to be 16.7 ± 0.4; the “Intraocular pressure, 48 hours after administration” value (shortened to “Intraocular pressure, 48 hours”) is given as 16.8 ± 0.6; the “Intraocular pressure, 60 hours after administration” value (“Intraocular pressure, 60 hours” below) is reported as 17.1 ± 0.5. The “Intraocular pressure, 72 hours after administration” value (from here on “Intraocular pressure, 72 hours”) in series [1] (dose 0.01%) is given as 16.8 ± 0.5. In addition, the “Intraocular pressure, baseline” value in series [1] (group dosed 0.01%) came out at 22.0 ± 0.6. In addition, the “Degree of irritative effect” value in series [2] (dose 0.01% topical) came to 1. Besides, the “Degree of irritative effect (conjunctival hyperemia)” value (shortened to “Degree … (conjunctival hyperemia)”) in series [3] (dose 0.01% topical) is reported as 1. In addition, in series [4], the “In vitro penetration rate (apparent flux), prodrug compounds” value (“In vitro penetration rate” for short) is reported as 1.05 mg/cm^2/h.

Turning to `CC(=O)O.CCN(CC)CCOC(=O)CCC/C=C\C[C@@H]1[C@@H](/C=C/[C@@H](O)CCc2ccccc2)[C@H](O)C[C@@H]1O` [N,N-diethylaminoethyl (Z)-7-{(1R,2R,3R,5S)-3,5-Dihydroxy-2-[(1E,3S)-3-hydroxy-5-phenyl-1-pentenyl]cyclopentyl}-heptenoate.AcOH], in series [1] (dose 0.001%), the “Intraocular pressure, 24 hours” value was 15.2 ± 0.6; the “Intraocular pressure, 36 hours” value is reported as 15.4 ± 0.5; the “Intraocular pressure, 48 hours” value came out at 15.5 ± 0.4; the “Intraocular pressure, 60 hours” value came out at 15.4 ± 0.6. In addition, the “Intraocular pressure, 72 hours” value in series [1] (dose 0.001%) is 15.4 ± 0.5. For the same compound, in series [1] (group dosed 0.001%), the “Intraocular pressure, baseline” value was 22.4 ± 0.6. For the same compound, the “Degree of irritative effect” value in series [2] (dose 0.001% topical) was found to be 1. For the same compound, the “Degree … (conjunctival hyperemia)” value in series [3] (dose 0.001% topical) turned out to be 1. The “In vitro penetration rate” value in series [4] is on record as 0.85 mg/cm^2/h.

As for `CC(=O)O.CCN(CC)CCOC(=O)CCC/C=C\C[C@@H]1[C@@H](/C=C/[C@@H](O)COc2cccc(C(F)(F)F)c2)[C@H](O)C[C@@H]1O` [N,N-diethylaminoethyl (Z)-7-{(1R,2R,3R,5S)-3,5-dihydroxy-2-[(1E,3R)-3-hydroxy-4-[(α,α,α-trifluoro-m-tolyl)oxy]-1-butenyl]cyclopentyl}-5-heptenoate.AcOH], in series [1] (dose 0.001%), the “Intraocular pressure, 24 hours” value was 15.1 ± 0.4; the “Intraocular pressure, 36 hours” value is 15.0 ± 0.5; the “Intraocular pressure, 48 hours” value is listed as 15.0 ± 0.4; the “Intraocular pressure, 60 hours” value was 14.9 ± 0.3. Besides, the “Intraocular pressure, 72 hours” value in series [1] (dose 0.001%) amounted to 15.1 ± 0.4. The “Intraocular pressure, baseline” value in series [1] (group dosed 0.001%) came out at 22.1 ± 0.4. Besides, the “Degree of irritative effect” value in series [2] (dose 0.001% topical) is 1. The “Degree … (conjunctival hyperemia)” value in series [3] (dose 0.001% topical) is reported as 1. In addition, in series [4], the “In vitro penetration rate” value came to 0.91 mg/cm^2/h.

Turning to `CC(=O)O.CCN(CC)CCOC(=O)CCC/C=C\C[C@@H]1[C@@H](CC[C@@H](O)CCc2ccccc2)[C@H](O)C[C@@H]1O` [N,N-diethylaminoethyl (Z)-7{(1R,2R,3R,5S)-3,5-dihydroxy-2-[(3R)-3-hydroxy-5-phenylpentyl]cyclopentyl}-5-heptenoate.AcOH], in series [1] (dose 0.001%), the “Intraocular pressure, 24 hours” value came to 15.6 ± 0.5; the “Intraocular pressure, 36 hours” value is 15.7 ± 0.4; the “Intraocular pressure, 48 hours” value turned out to be 15.6 ± 0.5; the “Intraocular pressure, 60 hours” value was found to be 15.5 ± 0.4. Moreover, in series [1] (dose 0.001%), the “Intraocular pressure, 72 hours” value is given as 15.6 ± 0.6. The “Intraocular pressure, baseline” value in series [1] (group dosed 0.001%) amounted to 22.5 ± 0.5. Besides, the “Degree of irritative effect” value in series [2] (dose 0.001% topical) is reported as 1. The “Degree … (conjunctival hyperemia)” value in series [3] (dose 0.001% topical) is recorded as 1. The “In vitro penetration rate” value in series [4] is given as 0.95 mg/cm^2/h.

(Values after patent publication US11555014B2, “High penetration prodrug compositions of prostaglandins and related compounds” (Techfields Pharma Co., Ltd., priority 2006, dated 2023).)
